Data taken from US8309568B2, “Transdermally deliverable opioid prodrugs, abuse-resistant compositions and methods of using opioid prodrugs” (Alltranz Inc., priority 2006, dated 2012).
Read-outs that look alike come from different tables or passages of the source.

Key:
[1] = not given; remark: listed apart in the source
[2] = Table 12, propylene glycol/ethanol [96:4], analyte buprenorphine from prodrug
[3] = Table 12, propylene glycol/ethanol [96:4], analyte intact prodrug
[4] = Table 12, propylene glycol/ethanol [96:4], analyte total buprenorphine (buprenorphine and/or prodrug)
[5] = Table 13, gel formulation, analyte buprenorphine from prodrug
[6] = Table 13, gel formulation, analyte total buprenorphine (buprenorphine and/or prodrug)
[7] = Table 6, propylene glycol, 25% aq. ethanol receiver, analyte buprenorphine from prodrug
[8] = Table 6, propylene glycol, 25% aq. ethanol receiver, analyte intact prodrug
[9] = Table 6, propylene glycol, 25% aq. ethanol receiver, analyte total buprenorphine (buprenorphine and/or prodrug)
[10] = Table 8, gel formulation, analyte buprenorphine from prodrug
[11] = Table 8, gel formulation, analyte total buprenorphine (buprenorphine and/or prodrug)
[12] = Table 8, gel formulation, total buprenorphine flux relative to buprenorphine
[13] = Table 11, propylene glycol, analyte buprenorphine from prodrug
[14] = Table 11, propylene glycol, analyte total buprenorphine (buprenorphine and/or prodrug)
[15] = Table 11, propylene glycol, total buprenorphine flux relative to buprenorphine
[16] = Table 8, gel formulation, analyte intact prodrug
[17] = Table 11, propylene glycol, analyte intact prodrug
[18] = Table 10, gel formulation, analyte intact prodrug
[19] = Table 10, gel formulation, analyte total buprenorphine (buprenorphine and/or prodrug)
[20] = Table 9, propylene glycol, analyte buprenorphine from prodrug
[21] = Table 9, propylene glycol, analyte intact prodrug
[22] = Table 9, propylene glycol, analyte total buprenorphine (buprenorphine and/or prodrug)

For `COCCOCCOCCOCC(=O)Oc1ccc2c3c1OC1C4(OC)CC[C@]5(CC4C(C)(O)C(C)(C)C)[C@@H](C2)N(CC2CC2)CC[C@]315` (stereo partly drawn) [ALL00116, Buprenorphine 3,6,9,12-tetraoxatridecanoyl ester], the “24 h cumulative amt” value [2] was 8.7 ± 1.2 nmol, the Flux [2] was 0.8 ± 0.2 nmol/cm^2/h and the Lag time [2] was 13.2 ± 0.8 h. The “24 h cumulative amt” value [3] was 21.7 ± 6.7 nmol, the Flux [3] was 1.9 ± 0.6 nmol/cm^2/h and the Lag time [3] was 11.8 ± 1.4 h. The “24 h cumulative amt” value [4] was 30.4 ± 7.0 nmol, the Flux [4] was 2.7±0.7 nmol/cm^2/h and the Lag time [4] was 12.3 ± 1.2 h. For the same molecule, the Flux enhancement (Table 12, propylene glycol/ethanol [96:4], total buprenorphine flux relative to buprenorphine) was 9.2, the “24 h cumulative amt” value [5] was 5.5 ± 0.6 nmol and the Flux [5] was 0.4 ± 0.1 nmol/cm^2/h. The Lag time [5] was 7.2 ± 0.6 h, the “24 h cumulative amt” value [6] was 5.5 ± 0.6 nmol and the Flux [6] was 0.4±0.1 nmol/cm^2/h. For the same molecule, the Lag time [6] was 7.2 ± 0.6 h, the Flux enhancement (Table 13, gel formulation, total buprenorphine flux relative to buprenorphine) was 1.2 and the “24 h skin conc” value [1, 2] was 2.4 ± 0.9 µmol/g. For the same molecule, the “24 h skin conc” value [1, 3] was 20.4 ± 5.8 µmol/g, the “24 h skin conc” value [1, 4] was 22.7 ± 6.8 µmol/g and the “24 h skin conc” value [1, 5] was 0.2 ± 0.0 µmol/g. The “24 h skin conc” value ([1]; Table 13, gel formulation, analyte intact prodrug) was 3.3 ± 0.8 µmol/g and the “24 h skin conc” value [1, 6] was 3.5 ± 0.9 µmol/g.

For `COCCOCCOCC(=O)Oc1ccc2c3c1O[C@H]1[C@@]4(OC)CC[C@@]5(C[C@@H]4[C@@](C)(O)C(C)(C)C)[C@@H](C2)N(CC2CC2)CC[C@]315` [ALL00108, Buprenorphine 2-[2-(2-methoxyethoxy)ethoxy]acetyl ester], the “24 h cumulative amt” value [7] was 9.7 ± 0.4 nmol, the Flux [7] was 0.90 ± 0.07 nmol/cm^2/h and the Lag time [7] was 12.5 ± 1.3 h. The “24 h cumulative amt” value [8] was 7.6 ± 2.0 nmol, the “24 h cumulative amt” value [9] was 17.3 ± 1.6 nmol and the Flux [9] was 1.01±0.07 nmol/cm^2/h. For the same molecule, the Lag time [9] was 6.0 ± 0.5 h, the Flux enhancement (Table 6, propylene glycol, 25% aq. ethanol receiver, total buprenorphine flux relative to buprenorphine) was 2.35 and the “24 h cumulative amt” value [10] was 21.0 ± 6.7 nmol. For the same molecule, the Flux [10] was 1.2 ± 0.6 nmol/cm^2/h, the Lag time [10] was 7.8 ± 0.8 h and the “24 h cumulative amt” value [11] was 21.0 ± 6.7 nmol. It also gave a Flux [11] of 1.2±0.6 nmol/cm^2/h, a Lag time [11] of 7.8 ± 0.8 h and a Flux enhancement [12] of 1.3. For the same molecule, the “24 h cumulative amt” value [13] was 5.8 ± 0.7 nmol, the Flux [13] was 0.5 ± 0.0 nmol/cm^2/h and the Lag time [13] was 10.9 ± 2.4 h. The “24 h cumulative amt” value [14] was 5.8 ± 0.7 nmol, the Flux [14] was 0.5±0.0 nmol/cm^2/h and the Lag time [14] was 10.9 ± 2.4 h. For the same molecule, the Flux enhancement [15] was 1.7, the “form in which the prodrug permeated through the skin” value (aqueous ethanol receiver fluid) was “permeated through the skin as buprenorphine and intact prodrug” and the “cumulative amount (nmol) higher than the buprenorphine base” value (aqueous ethanol receiver, propylene glycol, relative to buprenorphine base) was 4 ×. For the same molecule, the “24 h skin conc” value [1, 7] was 0.4 ± 0.1 µmol/g, the “24 h skin conc” value [1, 8] was 1.0 ± 0.3 µmol/g and the “24 h skin conc” value [1, 9] was 1.4 ± 0.4 µmol/g. The “24 h skin conc” value [1, 10] was 0.2 ± 0.2 µmol/g, the “24 h skin conc” value [1, 16] was 1.9 ± 1.6 µmol/g and the “24 h skin conc” value [1, 11] was 2.2 ± 1.8 µmol/g. For the same molecule, the “24 h skin conc” value [1, 17] was 2.4 ± 0.7 µmol/g and the “24 h skin conc” value [1, 14] was 2.4 ± 0.7 µmol/g.

In the case of `COCCOCCOCCOCCOC(=O)Oc1ccc2c3c1OC1C4(OC)CC[C@]5(CC4C(C)(O)C(C)(C)C)[C@@H](C2)N(CC2CC2)CC[C@]315` (stereo partly drawn) [ALL00115, Buprenorphine 3,6,9,12-tetraoxatridecyl carbonate], the “24 h cumulative amt” value [18] is reported as 4.5 ± 1.3 nmol, the Flux [18] is reported as 0.2 ± 0.1 nmol/cm^2/h and the Lag time [18] is reported as 7.6 ± 0.5 h. For the same molecule, the “24 h cumulative amt” value [19] was 4.5 ± 1.3 nmol, the Flux [19] was 0.2±0.1 nmol/cm^2/h and the Lag time [19] was 7.6 ± 0.5 h. The Flux enhancement (Table 10, gel formulation, total buprenorphine flux relative to buprenorphine) was 1.2, the “24 h cumulative amt” value [17] was 6.0 ± 1.3 nmol and the “24 h cumulative amt” value [14] was 6.0 ± 1.3 nmol. The Flux [14] was 0.7±0.2 nmol/cm^2/h, the Lag time [14] was 9.4 ± 8.5 h and the Flux enhancement [15] was 2.3. The “form detected in the receiver fluid” value (both the gel formulation and propylene glycol) was “mostly detected as intact prodrug”, the “24 h skin conc” value ([1]; Table 10, gel formulation, analyte buprenorphine from prodrug) was 0.1 ± 0.0 µmol/g and the “24 h skin conc” value [1, 18] was 3.4 ± 0.6 µmol/g. For the same molecule, the “24 h skin conc” value [1, 19] was 1.4 ± 0.4 µmol/g, the “24 h skin conc” value [1, 17] was 0.8 ± 0.2 µmol/g and the “24 h skin conc” value [1, 14] was 0.8 ± 0.2 µmol/g.

In the case of `COCCOCCOCCOC(=O)Oc1ccc2c3c1OC1C4(OC)CC[C@]5(CC4C(C)(O)C(C)(C)C)[C@@H](C2)N(CC2CC2)CC[C@]315` (stereo partly drawn) [ALL00106, Buprenorphine 3,6,9-trioxadecyl carbonate], the “form in which the prodrug permeated through the skin” value (Hanks' buffer receiver fluid) is reported as “permeated through the human skin as buprenorphine”, the “24 h cumulative amt” value (Table 3, donor propylene glycol, Hanks' buffer receiver, buprenorphine permeated) is reported as 11.4 ± 0.8 nmol and the Flux (Table 3, donor propylene glycol, Hanks' buffer receiver, total buprenorphine flux) is reported as 0.54±0.07 nmol/cm^2/h. The Flux enhancement (Table 3, donor propylene glycol, flux relative to buprenorphine) was 1.20, the “24 h cumulative amt” value [10] was 1.7 ± 0.3 nmol and the Flux [10] was 0.2 ± 0.1 nmol/cm^2/h. For the same molecule, the Lag time [10] was 4.7 ± 1.5 h, the “24 h cumulative amt” value [16] was 3.8 ± 0.3 nmol and the Flux [16] was 0.3 ± 0.0 nmol/cm^2/h. The Lag time [16] was 8.2 ± 0.8 h, the “24 h cumulative amt” value [11] was 5.5 ± 0.5 nmol and the Flux [11] was 0.4 ± 0.1 nmol/cm^2/h. The Lag time [11] was 6.5 ± 1.1 h, the Flux enhancement [12] was 0.4 and the “24 h cumulative amt” value [20] was 30.1 ± 13.2 nmol. For the same molecule, the Flux [20] was 2.3 ± 0.8 nmol/cm^2/h, the Lag time [20] was 10.2 ± 1.4 h and the “24 h cumulative amt” value [21] was 18.8 ± 4.6 nmol. The Flux [21] was 1.5 ± 0.3 nmol/cm^2/h, the Lag time [21] was 11.1 ± 1.2 h and the “24 h cumulative amt” value [22] was 48.9 ± 17.6 nmol. The Flux [22] was 3.8 ± 1.1 nmol/cm^2/h, the Lag time [22] was 10.6 ± 1.3 h and the Flux enhancement (Table 9, propylene glycol, total buprenorphine flux relative to buprenorphine) was 3.2. For the same molecule, the “24 h skin conc” value ([1]; Table 3, donor propylene glycol, Hanks' buffer receiver, analyte buprenorphine (Bup)) was 0.2 ± 0.1 (Bup) μmol/g, the “24 h skin conc” value ([1]; Table 3, donor propylene glycol, Hanks' buffer receiver, analyte intact prodrug (PD)) was 2.1 ± 1.5 (PD) μmol/g and the “24 h skin conc” value [1, 10] was 0.3 ± 0.1 µmol/g. The “24 h skin conc” value [1, 16] was 11.9 ± 3.6 µmol/g, the “24 h skin conc” value [1, 11] was 12.2 ± 3.6 µmol/g and the “24 h skin conc” value [1, 20] was 1.6 ± 0.4 µmol/g. For the same molecule, the “24 h skin conc” value [1, 21] was 10.4 ± 4.0 µmol/g and the “24 h skin conc” value [1, 22] was 11.9 ± 4.4 µmol/g.
